Among the data in ChEMBL document CHEMBL3779887, “Robenidine Analogues as Gram-Positive Antibacterial Agents” (J Med Chem, 2016) are MIC and Activity values, retold here.

Type in all cases: functional
The test system of test [1] is Enterococcus. Nature of the test: Antibacterial activity against vancomycin-resistant Enterococcus after 20 to 24 hrs.
For test [2], the system named is Staphylococcus aureus. Nature of the test: Antibacterial activity against methicillin-resistant Staphylococcus aureus after 20 to 24 hrs.
The test system of test [3] is Pseudomonas aeruginosa. Nature of the test: Antibacterial activity against Pseudomonas aeruginosa ATCC 27853 after 20 to 24 hrs.
The subject of test [4] is Escherichia coli. Nature of the test: Antibacterial activity against Escherichia coli ATCC 25922 after 20 to 24 hrs.

Structures are written as SMILES. In brackets after ≈: the same amount, converted by molar mass. Activity calls are given as the source filed them.

In the case of `N=C(N/N=C/c1ccc2ccccc2c1)N/N=C/c1ccc2ccccc2c1`, the values for the minimum inhibitory concentration (MIC) in test [1] and in test [2] were 159 µM (≈ 58.1 µg/mL) and 239 µM (≈ 87.3 µg/mL), respectively.

On to `N=C(N/N=C/c1cccnc1N)N/N=C/c1cccnc1N`, for which the MIC in test [1] and in test [2] was more than 400 µM throughout.

Consider `N=C(N/N=C/c1cccc(Cl)c1)N/N=C/c1cccc(Cl)c1`, for which the MIC in test [3] is more than 400 µM; in test [4], more than 400 µM; in test [1], 10.8 µM (≈ 3.61 µg/mL); in test [2] it was 8.1 µM (≈ 2.71 µg/mL).

As for `N=C(N/N=C/c1ccc(Br)cc1)N/N=C/c1ccc(Br)cc1`, the minimum inhibitory concentration (MIC) in test [3], in test [4], in test [1] and in test [2] was more than 400 µM throughout.

Regarding `COc1cc(/C=N/NC(=N)N/N=C/c2ccc(O)c(OC)c2)ccc1O`, the MIC in test [3] was more than 400 µM; in test [4] it was more than 400 µM; in test [1], 163 µM (≈ 58.3 µg/mL); in test [2] it was 244 µM (≈ 87.2 µg/mL).

With `COc1ccc(/C=N/NC(=N)N/N=C/c2ccc(OC)cc2)cc1`, the MIC in test [3], in test [4], in test [1] and in test [2] was more than 400 µM in each case.

`CC(=O)Nc1ccc(/C=N/NC(=N)N/N=C/c2ccc(NC(C)=O)cc2)cc1`: the MIC in test [3], in test [4], in test [1] and in test [2] was more than 400 µM throughout.

Take `N=C(N/N=C/c1ccc(O)cc1O)N/N=C/c1ccc(O)cc1O`: the MIC in test [3], in test [4], in test [1] and in test [2] was more than 400 µM each time.

As to `N=C(N/N=C/C1CCCCC1)N/N=C/C1CCCCC1`, the MIC was 306 µM (≈ 84.9 µg/mL) in test [1] and 408 µM (≈ 113 µg/mL) in test [2].

On to `N=C(N/N=C/c1c(F)c(F)c(F)c(F)c1F)N/N=C/c1c(F)c(F)c(F)c(F)c1F`, for which the minimal inhibitory concentration (MIC) in test [3], in test [4], in test [1] and in test [2] was more than 400 µM throughout.

`N=C(N/N=C(\CN)c1ccccc1)N/N=C(\CN)c1ccccc1`: the outcome in test [4] was inactive. Moreover, the minimal inhibitory concentration (MIC) in test [1] and in test [2] was more than 400 µM throughout.

Turning to `C#Cc1ccc(/C=N/NC(=N)N/N=C/c2ccc(C#C)cc2)cc1`, the MIC in test [3] is more than 400 µM; in test [4], more than 400 µM; in test [1] it was 17.2 µM (≈ 5.39 µg/mL); in test [2], more than 400 µM.

Turning to `N=C(N/N=C/c1ccc(Cl)cc1O)N/N=C/c1ccc(Cl)cc1O`, the MIC in test [3] was more than 400 µM; in test [4] it was more than 400 µM; in test [1] it was 45 µM (≈ 16.5 µg/mL); in test [2] it was 80 µM (≈ 29.3 µg/mL).

Take `N=C(N/N=C/C=C/c1ccccc1)N/N=C/C=C/c1ccccc1`: the MIC in test [1] and in test [2] was more than 400 µM in each case.

For the compound `N=C(N/N=C/c1ccc(Cl)cc1Cl)N/N=C/c1ccc(Cl)cc1Cl`, the MIC in test [3], in test [4], in test [1] and in test [2] was more than 400 µM in each case.

As to `N=C(N/N=C/c1ccc(-c2ccccc2)cc1)N/N=C/c1ccc(-c2ccccc2)cc1`, the minimal inhibitory concentration (MIC) in test [3] was more than 400 µM; in test [4], more than 400 µM; in test [1] it was 106 µM (≈ 44.3 µg/mL); in test [2], 282 µM (≈ 118 µg/mL).

Consider `N=C(N/N=C/c1csc2ccc(Cl)cc12)N/N=C/c1csc2ccc(Cl)cc12`, for which the results for the MIC in test [1] and in test [2] were 33.1 µM (≈ 14.8 µg/mL) and more than 400 µM, respectively.

`N=C(N/N=C/C(=C/c1ccccc1)c1ccccc1)N/N=C/C(=C/c1ccccc1)c1ccccc1`: the minimum inhibitory concentration (MIC) in test [1] was more than 400 µM; in test [2], 61 µM (≈ 28.6 µg/mL).

On to `N=C(N/N=C/c1cccc(F)c1)N/N=C/c1cccc(F)c1`, for which the minimal inhibitory concentration (MIC) in test [3] was more than 400 µM; in test [4], more than 400 µM; in test [1] it was 71 µM (≈ 21.4 µg/mL); in test [2], 47 µM (≈ 14.2 µg/mL).

Regarding `N=C(N/N=C(\C(=O)O)c1ccccc1)N/N=C(\C(=O)O)c1ccccc1`, in test [4], the result was inactive. In addition, the minimum inhibitory concentration (MIC) in test [1] and in test [2] was more than 400 µM throughout.

Turning to `N=C(N/N=C/c1ccncc1)N/N=C/c1ccncc1`, the MIC in test [1] and in test [2] was more than 400 µM throughout.

Consider `Cc1ccccc1/C=N/NC(=N)N/N=C/c1ccccc1C`, for which the MIC in test [3] was more than 400 µM; in test [4] it was more than 400 µM; in test [1], 61 µM (≈ 17.9 µg/mL); in test [2], 121 µM (≈ 35.5 µg/mL).

On to `C/C(=N\NC(=N)N/N=C(\C)c1ccc(Br)cc1)c1ccc(Br)cc1`, for which the outcome in test [4] was inactive. Also, the MIC in test [1] was determined as 24.6 µM (≈ 11.1 µg/mL); in test [2], 16.4 µM (≈ 7.4 µg/mL).

On to `COc1cc(Br)c(/C=N/NC(=N)N/N=C/c2cc(OC)c(OC)cc2Br)cc1OC`, for which the minimum inhibitory concentration (MIC) in test [3], in test [4], in test [1] and in test [2] was more than 400 µM each time.

`N=C(N/N=C/c1ccc(O)c(O)c1)N/N=C/c1ccc(O)c(O)c1`: the MIC in test [3], in test [4], in test [1] and in test [2] was more than 400 µM throughout.

As to `C/C(=N\NC(=N)N/N=C(\C)c1ccc(C)cc1)c1ccc(C)cc1`, the outcome in test [4] was inactive. Further, the minimum inhibitory concentration (MIC) was found to be 8.4 µM (≈ 2.7 µg/mL) in test [1] and 11.2 µM (≈ 3.6 µg/mL) in test [2].

In the case of `N=C(N/N=C/c1ccccc1-c1ccccc1)N/N=C/c1ccccc1-c1ccccc1`, the MIC in test [3], in test [4], in test [1] and in test [2] was more than 400 µM in each case.

As to `CCCC/C(=N\NC(=N)N/N=C(\CCCC)c1ccc(Cl)cc1)c1ccc(Cl)cc1`, the result in test [4] was inactive. The MIC in test [1] and in test [2] was more than 400 µM each time.

`COc1ccc(/C=C/C=N/NC(=N)N/N=C/C=C/c2ccc(OC)cc2)cc1`: the MIC was more than 400 µM in test [1] and 309 µM (≈ 117 µg/mL) in test [2].

For the compound `N=C(N/N=C/c1ccc2[nH]ccc2c1)N/N=C/c1ccc2[nH]ccc2c1`, the MIC came out at 42 µM (≈ 14.4 µg/mL) in test [1] and 31.6 µM (≈ 10.9 µg/mL) in test [2].

On to `N=C(N/N=C/c1cnccc1Cl)N/N=C/c1cnccc1Cl`, for which the MIC in test [1] is 86 µM (≈ 28.9 µg/mL); in test [2] it was 172 µM (≈ 57.8 µg/mL).

In the case of `N=C(N/N=C/c1cnc2ccccc2c1)N/N=C/c1cnc2ccccc2c1`, the outcome in test [1] and in test [2] was inactive.

For the compound `C/C(=N\NC(=N)N/N=C(\C)c1ccc(C(C)(C)C)cc1)c1ccc(C(C)(C)C)cc1`, in test [4], the result was inactive. In addition, the figures for the MIC in test [1] and in test [2] were 36.2 µM (≈ 14.7 µg/mL) and 4.5 µM (≈ 1.83 µg/mL), respectively.

Take `C/C(=N\NC(=N)N/N=C(\C)c1ccc(N2CCNCC2)cc1)c1ccc(N2CCNCC2)cc1`: the result in test [4] was inactive. The minimal inhibitory concentration (MIC) in test [1] came to 278 µM (≈ 128 µg/mL); in test [2], 243 µM (≈ 112 µg/mL).

`CCC/C(=N\NC(=N)N/N=C(\CCC)c1ccc(Cl)cc1)c1ccc(Cl)cc1`: the outcome in test [4] was inactive. For the same compound, the minimum inhibitory concentration (MIC) in test [1] and in test [2] was more than 400 µM in each case.

As for `C/C(=N\NC(=N)N/N=C(\C)c1ccc(C(F)(F)F)cc1)c1ccc(C(F)(F)F)cc1`, the outcome in test [4] was inactive. The MIC in test [1] was 17.2 µM (≈ 7.39 µg/mL); in test [2], more than 400 µM.

On to `N=C(N/N=C/c1cnc2ccccc2n1)N/N=C/c1cnc2ccccc2n1`, for which the result in test [1] and in test [2] was inactive.

In the case of `CC/C(=N\NC(=N)N/N=C(\CC)c1ccc(Cl)cc1)c1ccc(Cl)cc1`, in test [4], the outcome was inactive. Moreover, the minimum inhibitory concentration (MIC) in test [1] was determined as 18.7 µM (≈ 7.3 µg/mL); in test [2], 56 µM (≈ 21.9 µg/mL).

With `C/C(=N\NC(=N)N/N=C(\C)c1ccccc1)c1ccccc1`, the result in test [4] was inactive. Further, the MIC in test [1] was determined as 49 µM (≈ 14.4 µg/mL); in test [2] it was 18.2 µM (≈ 5.34 µg/mL).

Broadly, the MIC is the smallest concentration in the dilution series that meets the test's criterion for growth inhibition.
